Values joined by “and” are separate entries in the source; they are usually repeats but may differ in a detail not shown here. Equal values may be shown once.
How the values were obtained:
Raji cells [1] = test: Cell viability assay (CellTiter-Glo luminescence); assay type: cell-based, human; conditions: for Cell viability (luminescence): 72 h, duplicates
Method: (§1) 5000 cells as indicated were cultured in 96-well plate with 100 μl of media. […] After treatment, the cells were incubated with 100 μl buffer for 10 min at room temperature following the instructions of CellTiter-Glo kit (Promega, Madison, WI). Luminescence was detected using a multi-mode reader Cytation 5 (BioTek, Winooski, VT). […] Two independent experiments done in duplicates were performed.

SU-DHL-4 cells [2] = test: Cell viability assay (CellTiter-Glo luminescence); assay type: cell-based, human; conditions: SU-DHL-4, 100 nM, 48 h post-treatment
Method: as §1

LCL1 cells = test: Cell viability assay (CellTiter-Glo luminescence); assay type: cell-based, human; conditions: 72 h, duplicates
Method: After treatment, the cells were incubated with 100 μl buffer for 10 min at room temperature following the instructions of CellTiter-Glo kit (Promega, Madison, WI). Luminescence was detected using a multi-mode reader Cytation 5 (BioTek, Winooski, VT). […] Two independent experiments done in duplicates were performed.

[3] = system: hematologic malignancies derived cell lines; test: Cell viability assay, panel of hematologic malignancy derived cell lines; assay type: cell-based, human; conditions: 100 nM, 72 h, lymphoma, leukemia and multiple myeloma cell lines (13 cell lines for analogs)
Method: 5000 cells as indicated were cultured in 96-well plate with 100 μl of media. On the next day, Brusatol or associated analogs were added once to the cells without media change. After treatment, the cells were incubated with 100 μl buffer for 10 min at room temperature following the instructions of CellTiter-Glo kit (Promega, Madison, WI). Luminescence was detected using a multi-mode reader Cytation 5 (BioTek, Winooski, VT). […] Two independent experiments done in duplicates were performed.

SU-DHL-4 cells [4] = test: Cell cycle assay (PI staining, flow cytometry); assay type: cell-based, human; conditions: SU-DHL-4, 100 nM, 48 h
Method: Five million cells were harvested, fixed with 80% ethanol for 2 h or overnight at −20 °C, then washed with PBS and incubated with Propidium iodide (PI) staining buffer (0.5 mg/ml propidium iodide in PBS with 50 μg/ml RNase A) for 30 min at room temperature. The stained cells were resuspended in PBS and analyzed on a FACSCalibur system (Becton Dickinson, San Jose, CA, USA) using FlowJo software (TreeStar, San Carlos, CA, USA).

Raji cells [5] = test: Western blot of PI3K/AKT signaling proteins; assay type: cell-based, human
Method: (§2) Western blot analyses were performed as previously described. Briefly, total cell lysates were separated by SDS-PAGE gel and transferred to nitrocellulose membrane. The membranes were blocked with 5% non-fat milk, probed with specific antibodies, and visualized using the Odyssey scanner (LiCor Inc., Lincoln, NE).

[6] = system: PIK3CG knock-out Raji cells; test: Western blot of PI3K/AKT associated proteins in knock-out cells; assay type: cell-based, human; conditions: 100 nM, 72 h
Method: as §2
Oligos were obtained from Integrated DNA Technologies (IDT; Coralville, IA, USA) and cloned into the lentiviral vector lentiCRISPR v2 (Addgene #52961)[66]. Lentivirus production and transduction have been described previously. Here, Raji cells were transduced with a lentivirus harboring lentiCRISPR v2 vector or a construct containing the guide sequence ([…]) against PIK3CG gene. At 48 h post-transduction, cells were selected with puromycin and harvested to determine PIK3CG expression with western blot.

MOLM14 xenografts = test: In vivo tumorigenic assay using xenografts, tumor size; design: species or system NOD/SCID mice; conditions: MOLM14 xenograft
Method: Six-week-old male NOD.CB17-Prkdc^scid/J (NOD/SCID) mice (Jackson Labs, Bar Harbor, ME, USA) were used as the human-in-mouse xeno-transplantation model. MOLM14 cells (1 × 10^7 cells) were injected into the subcutaneous space on the left flank of the mice. […] Body weight and tumor size were monitored before every injection. After treatment for 2 weeks, the mice were euthanized by CO2 inhalation and the tumors were carefully excised. The tumor volume (mm^3) was measured and calculated using the formula (a × b × b)/2 (a, the largest diameter of two measurements; b, the smallest diameter of two measurements).

Brusatol
inhibition of viability (cells inhibited) (Raji cells [1]; 100 nM, 48 h post-treatment): more than 80%
Cell viability (luminescence) (Raji cells [1]; cell number 0, 100 nM): 0.9927 and 1.007
Cell viability (luminescence) (Raji cells [1]; cell number 625, 100 nM): 3.94 and 4.0527
Cell viability (luminescence) (Raji cells [1]; cell number 1250, 100 nM): 7.303 and 7.093
Cell viability (luminescence) (Raji cells [1]; cell number 2500, 100 nM): 8.911 and 8.321
Cell viability (luminescence) (Raji cells [1]; cell number 5000, 100 nM): 13.6562 and 12.7698
Cell viability (luminescence) (Raji cells [1]; cell number 10000, 100 nM): 11.8436 and 13.905
inhibition of viability (cells inhibited) (SU-DHL-4 cells [2]): more than 80%
Cell viability (luminescence) (LCL1 cells; LCL1, cell number 0, 100 nM): 0.8054 and 1.195
Cell viability (luminescence) (LCL1 cells; LCL1, cell number 625, 100 nM): 1.142 and 1.405
Cell viability (luminescence) (LCL1 cells; LCL1, cell number 1250, 100 nM): 2.424 and 2.078
Cell viability (luminescence) (LCL1 cells; LCL1, cell number 2500, 100 nM): 3.232 and 2.818
Cell viability (luminescence) (LCL1 cells; LCL1, cell number 5000, 100 nM): 3.613 and 2.736
Cell viability (luminescence) (LCL1 cells; LCL1, cell number 10000, 100 nM): 4.594 and 3.987
inhibition of cell viability in panel of cell lines [3]: broad and potent inhibitory effects
Sub-G1 population (SU-DHL-4 cells [4]): 67.9%
protein expression of AKT1, GSK3, and mTOR (Raji cells [5]; Raji, 0, 50 nM, 100 nM, 0, 12 h, 24 h): substantially reduced
levels of AKT1 and GSK3 proteins (Raji cells [5]; Raji, Fig. 2h): decreased
AKT1 level [6]: no obvious decrease
tumor size (Fig 5d&5e), individual mice (MOLM14 xenografts; 0d): 79.6409 and 170.904 and 81.1118 and 93.0315 and 105.314 and 98.3496
tumor size (Fig 5d&5e), individual mice (MOLM14 xenografts; 2d): 114.921 and 89.4339 and 85.1926 and 118.807 and 122.531 and 72.1684
tumor size (Fig 5d&5e), individual mice (MOLM14 xenografts; 4d): 71.6608 and 87.7482 and 91.4458 and 96.2719 and 66.2604 and 63.9219
tumor size (Fig 5d&5e), individual mice (MOLM14 xenografts; 6d): 86.9292 and 188.062 and 142.989 and 148.569 and 65.5816 and 390.002
tumor size (Fig 5d&5e), individual mice (MOLM14 xenografts; 8d): 191.246 and 199.336 and 280.113 and 250.93 and 138.38 and 152.733
tumor size (Fig 5d&5e), individual mice (MOLM14 xenografts; 10d): 255.462 and 401.539 and 386.529 and 187.744 and 278.266
tumor size (Fig 5d&5e), individual mice (MOLM14 xenografts; 12d): 394.032 and 649.634 and 755.109 and 281.476 and 493.005
